What was measured:
[1] = tested on: Diabrotica balteata; test: Diabrotica balteata spray test; format: in vivo; details: application rate 160 μg/well, wheat grains with beetle larvae, after 7 days
Experimental: Diabrotica balteata—Spray Test Solvent: 78 parts by weight of acetone • • 1.5 parts by weight of dimethylformamide Emulsifier: alkylaryl polyglycol ether
(§1) To produce a suitable active ingredient formulation, 1 part by weight of active ingredient is dissolved with the stated parts by weight of solvent and made up with water containing an emulsifier concentration of 1000 ppm until the desired concentration is attained. To produce further test concentrations, the formulation is diluted with emulsifier-containing water.
Pre-swollen wheat grains (Triticum aestivum) are incubated in a multiwell plate filled with agar and a little water for one day (5 seed grains per cavity). The germinated wheat grains are sprayed with an active ingredient formulation of the desired concentration. Subsequently, each cavity is infected with 10-20 beetle larvae of Diabrotica balteata.
After 7 days, the efficacy in % is determined. 100% means that all wheat plants have grown as in the untreated, uninfected control; 0% means that no wheat plant has grown.

[2] = log P by HPLC on reversed-phase column (EEC directive 79/831 Annex V.A8); format: physicochemical; details: for log p a): HPLC on reversed-phase column; for log p: HPLC on reversed-phase column (footnote a)
Outline: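 Reversed-phase (C18) HPLC at 43° C, following EEC directive 79/831 Annex V.A8.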

[3] = tested on: Myzus persicae; test: Myzus persicae oral test; format: in vivo; details: application rate 20 ppm, oral uptake through parafilm, after 5 days
Outline: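 Oral feeding format: mixed-stage Myzus persicae imbibe acetone/water compound formulation in sugared IPL41 medium through parafilm. Efficacy assessed as percent aphids killed at day 5.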

[4] = tested on: Myzus persicae; test: Myzus persicae spray test (Chinese cabbage leaf discs); format: in vivo; details: application rate 500 g/ha, after 6 days
Experimental: Myzus persicae—Spray Test Solvent: 78 parts by weight of acetone • • 1.5 parts by weight of dimethylformamide Emulsifier: alkylaryl polyglycol ether
as §1
Discs of Chinese cabbage leaves (Brassica pekinensis) infested by all stages of the green peach aphid (Myzus persicae) are sprayed with an active ingredient formulation of the desired concentration.
After 6 days, the efficacy in % is determined. 100% means that all the aphids have been killed; 0% means that no aphids have been killed.

Compound	log p a) [2]	efficacy [1]	efficacy [3]	log p [2]	efficacy [4]
CCCNC(=O)c1c([O-])n(C(C)c2ccc(Cl)nc2)c2c(C)ccc[n+]12 (racemic) [Example I-1-258]	2.23	80%			
O=C(COCc1ccccc1)c1c([O-])n(Cc2cnc(Cl)s2)c2cccc[n+]12 [Example I-1-041]		80%	100%	2.35	
O=C(Cn1nccn1)c1c([O-])n(Cc2cnc(Cl)s2)c2cccc[n+]12 [Example I-1-068]			100%	1.41	100%
CCC(=O)N(CC)CC(=O)c1c([O-])n(Cc2ccc(Cl)nc2)c2cccc[n+]12 [Example I-1-070]			100%	1.64	100%
CCOCC(=O)c1c([O-])n(Cc2cncnc2)c2cccc[n+]12 [Example I-1-072]			100%	0.59	100%
CC(=O)N(C)CC(=O)c1c([O-])n(Cc2cnc(Cl)s2)c2cccc[n+]12 [Example I-1-076]			100%	1.18	100%
Cc1ccc[n+]2c(C(=O)CCl)c([O-])n(Cc3cnc(Cl)s3)c12 [Example I-1-081]			100%	1.98	100%
Cn1nccc1OCC(=O)c1c([O-])n(Cc2cnc(Cl)s2)c2cccc[n+]12 [Example I-1-086]			100%	1.53	100%
Cc1ccn(CC(=O)c2c([O-])n(Cc3cnc(Cl)s3)c3c(C)ccc[n+]23)n1 [Example I-1-092]			100%	1.84	90%
COC(=O)c1c([O-])n(Cc2ccc(Cl)nc2)c2cccc[n+]12 [Example I-1-101]			100%	1.18	90%
O=C(Cn1cccn1)c1c([O-])n(Cc2ccc(Cl)nc2)c2ccc(F)c[n+]12 [Example I-1-106]			90%	1.53	90%
COC(=O)c1c([O-])n(Cc2cncnc2)c2cccc[n+]12 [Example I-1-107]			100%	0.42	90%
CCOCC(=O)c1c([O-])n(Cc2cnc(Cl)s2)c2ccc(F)c[n+]12 [Example I-1-112]			100%	1.58	90%
COC(=O)c1c([O-])n(Cc2cnc(Cl)s2)c2cccc(C)[n+]12 [Example I-1-122]			100%	1.32	90%
CNC(=O)c1c([O-])n(Cc2cnc(Cl)s2)c2cccc[n+]12 [Example I-1-128]		100%		1.31	
CCCNC(=O)c1c([O-])n(Cc2cnc(Cl)s2)c2cccc[n+]12 [Example I-1-129]		100%	100%	1.98	
O=C(NC1CCC1)c1c([O-])n(Cc2cnc(Cl)s2)c2cccc[n+]12 [Example I-1-135]		80%	90%	2.11	
O=C(NCc1ccccc1)c1c([O-])n(Cc2cnc(Cl)s2)c2cccc[n+]12 [Example I-1-148]		100%	100%	2.41	
COCC(=O)c1c([O-])n(C(C)c2ccc(Cl)nc2)c2cccc[n+]12 (centres unmarked) [Example I-1-178]			100%	1.35	90%
Cc1ccc[n+]2c(C(=O)NC3CC3)c([O-])n(Cc3cnc(Cl)s3)c12 [Example I-1-203]	1.93	100%	100%		
CC(c1ccc(Cl)nc1)n1c([O-])c(C(=O)Nc2cccc(C(F)(F)F)c2)[n+]2ccccc12 (centres unmarked) [Example I-1-238]	3.72	80%			
COC(=O)c1c([O-])n(C(C)c2cnc(Cl)s2)c2c(C)ccc[n+]12 (centres unmarked) [Example I-1-287]	1.68	80%	100%		
Cc1ccc[n+]2c(C(=O)NC3CC3)c([O-])n(C(C)c3cnc(Cl)s3)c12 (centres unmarked) [Example I-1-290]	2.2	100%			
O=C(Nc1c(F)cccc1F)c1c([O-])n(Cc2ccc(Cl)nc2)c2cccc[n+]12 [Example I-1-313]	2.27		100%		90%
O=C(Nc1ncccc1Cl)c1c([O-])n(Cc2ccc(Cl)nc2)c2cccc[n+]12 [Example I-1-315]	1.46		100%		100%
Cn1nccc1NC(=O)c1c([O-])n(Cc2ccc(Cl)nc2)c2cccc[n+]12 [Example I-1-325]	1.49		100%		90%
Cc1ccccc1NC(=O)c1c([O-])n(Cc2ccc(Cl)nc2)c2cccc[n+]12 [Example I-1-328]	2.73		100%		90%

More lines, main results first:

log p a) [2]	Compound	efficacy [1]	efficacy [3]	log p [2]	efficacy [4]
3.46	Cc1ccc[n+]2c(C(=O)NC(C)c3ccc(Cl)cc3)c([O-])n(Cc3cnc(Cl)s3)c12 (centres unmarked) [Example I-1-210]		100%		100%
4.06	Cc1ccc[n+]2c(C(=O)Nc3cccc(C(F)(F)F)c3)c([O-])n(Cc3cnc(Cl)s3)c12 [Example I-1-216]	100%	100%		
3.87	O=C(Nc1cccc(OC(F)(F)F)c1)c1c([O-])n(Cc2cnc(Cl)s2)c2cccc[n+]12 [Example I-1-230]	100%			
3.13	O=C(Nc1ccc(F)cc1F)c1c([O-])n(Cc2cnc(Cl)s2)c2cccc[n+]12 [Example I-1-232]	100%	90%		
3.76	O=C(Nc1cccc(C(F)(F)F)c1)c1c([O-])n(Cc2cnc(Cl)s2)c2cccc[n+]12 [Example I-1-233]	80%			
3.21	Cc1cccc(NC(=O)c2c([O-])n(Cc3cnc(Cl)s3)c3cccc[n+]23)c1 [Example I-1-235]	100%	90%		
1.78	Cc1ccc[n+]2c(C(=O)Nc3ncccc3F)c([O-])n(Cc3cnc(Cl)s3)c12 [Example I-1-274]		100%		90%
1.81	CCCNC(=O)c1c([O-])n(Cc2cnc(Cl)cn2)c2cccc[n+]12 [Example I-1-279]		100%		90%
3.07	Cc1ccc[n+]2c(C(=O)Nc3c(F)cccc3F)c([O-])n(Cc3cnc(Cl)s3)c12 [Example I-1-291]	80%			
2.76	CCC(CC)OCC(=O)c1c([O-])n(Cc2cnc(Cl)s2)c2c(C)ccc[n+]12 [Example I-1-293]		100%		100%
2.12	Cc1ccc[n+]2c(C(=O)COC(C)(C)C)c([O-])n(Cc3cnc(Cl)s3)c12 [Example I-1-296]		100%		90%
2.34	Cc1ccc[n+]2c(C(=O)COCC(F)(F)F)c([O-])n(Cc3cnc(Cl)s3)c12 [Example I-1-297]		100%		90%
1.63	O=C(Nc1ncccc1Cl)c1c([O-])n(Cc2cnc(Cl)s2)c2cccc[n+]12 [Example I-1-301]		100%		100%
2.8	Cc1cccc(Cl)c1NC(=O)c1c([O-])n(Cc2cnc(Cl)s2)c2cccc[n+]12 [Example I-1-304]		100%		100%
2.14	O=C(Nc1c(Cl)ccnc1Cl)c1c([O-])n(Cc2cnc(Cl)s2)c2cccc[n+]12 [Example I-1-305]		100%		90%
2.4	O=C(Nc1cccnc1Cl)c1c([O-])n(Cc2cnc(Cl)s2)c2cccc[n+]12 [Example I-1-308]		100%		90%
2.03	Cc1ccnc(Cl)c1NC(=O)c1c([O-])n(Cc2cnc(Cl)s2)c2cccc[n+]12 [Example I-1-309]		100%		100%
1.75	N#Cc1cccnc1NC(=O)c1c([O-])n(Cc2cnc(Cl)s2)c2cccc[n+]12 [Example I-1-310]		100%		90%
3.22	O=C(Nc1ccccc1C(F)(F)F)c1c([O-])n(Cc2cnc(Cl)s2)c2cccc[n+]12 [Example I-1-311]		100%		100%
2.43	N#Cc1cccc(Cl)c1NC(=O)c1c([O-])n(Cc2cnc(Cl)s2)c2cccc[n+]12 [Example I-1-319]		100%		90%
